3 molecules from patent US6461997B1, “Triazole sulfones having herbicidal activity” (Monsanto Technology LLC, priority 1999, dated 2002) can be followed below.

The test system of data set [1] is IPOSS (annual morningglory). Description: Pre-emergence herbicidal activity, warm season. In kind it is in vivo, Ipomoea spp. The conditions noted are these: Ipomoea, pre-emergence application, read-out: Percent inhibition, weed IPOSS. The method, then:
(§1) Tables 5 to 8 summarize results of tests conducted as described below to determine the pre-emergence herbicidal activity, in the form of a GR80 value, of illustrative compounds of this invention. […] Compounds of the invention were typically applied at rates of 300, 100, 30, and 10 g/ha. Where herbicidal activity was evident but 80% inhibition was not achieved at the highest rate tested, an asterisk (*) is shown in the following tables.
(§2) The pre-emergence tests were conducted by the following procedure. Topsoil was sieved to pass through a 1.27 cm screen. Fertilizer was added to the topsoil and the mixture was then sterilized by heating. The topsoil mixture was placed in a pot and compacted to a depth of 1.0 to 1.25 cm from the top of the pot. Seeds of each of several monocotyledonous and dicotyledonous annual plant species were placed on top of the soil. Additional soil was subsequently placed over the seeds to level-fill the pot. A known amount of each test compound dissolved or suspended in an appropriate organic solvent was diluted with a 50:50 mix of acetone and water and applied to the surface of the soil. After treatment the plants were placed in a greenhouse where they received 0.64 cm of overhead irrigation. All subsequent watering consisted of a light overhead mist and/or subirrigation as needed for germination and growth. Tables 5 and 6 below relate to warm season plant species which were placed after pre-emergence treatment in a greenhouse with a 30/21° C. day/night temperature regime. Tables 7 and 8 below relates to cool season plant species placed after pre-emergence treatment in a greenhouse or growth chamber with an 18/13° C. day/night temperature regime.
(§3) Approximately 14 days after planting and treating, the plants were observed and herbicidal efficacy recorded as percent inhibition by comparison with untreated plants.
(§4) The plant species usually regarded as weeds which were utilized in the tests are identified in the tables below according to the following legend, in which “d” indicates a dicotyledonous species and “m” a monocotyledonous species. All monocotyledonous species included in the tests herein are grasses.

The test system of the next data set is KCHSC (kochia). Nature of the data set: Post-emergence herbicidal activity, cool season. In kind it is in vivo, Kochia scoparia. The following applies: abraded plants sprayed; GR80 = lowest tested rate (300, 100, 30, 10 g/ha) with 80% or greater inhibition; approx. 14 days after treatment; 18/13° C. The procedure: (§5) In another set of tests, the post-emergence activity of compounds of this invention was evaluated on the cool season species listed above. The following procedure was used.
(§6) A pre-prepared topsoil mixture (described above) was placed in a pot and compacted to a depth of 1.0 to 1.25 cm from the top of the pot. Seeds of each of several monocotyledonous and dicotyledonous annual plant species were placed on top of the soil. The seeds were covered with a mixture of 50% topsoil and 50% Rediearth™ in sufficient quantity to level-fill the pots. The pots were then placed on a greenhouse bench and subirrigated as needed.
(§7) When plants growing from the seeds had emerged and reached a suitable growth stage for post-emergence treatment, typically 9 to 14 days after planting, above-ground parts of the plants were subjected to a pre-treatment involving abrasion to create greater opportunity for foliar uptake of subsequently applied compounds. Abrasion was performed using garnet 200w particles applied with a Sears Craftsman hand-held sandblaster operated at approximately 850 kPa (50 psig) pressure. […]
(§8) After treatment the plants were placed in a greenhouse with an 18/13° C. day/night temperature regime and were subsequently watered as needed for growth. Approximately 14 days after treatment, the plants were observed and herbicidal efficacy recorded as percent inhibition by comparison with control plants. […]

The subject of data set [2] is VERPE (creeping speedwell). Nature of the data set: Post-emergence herbicidal activity, cool season. In kind it is in vivo, Veronica persicaria. The conditions noted are these: abraded plants sprayed; GR80 = lowest tested rate (300, 100, 30, 10 g/ha) with 80% or greater inhibition; approx. 14 days after treatment; 18/13° C. The method, then: as §5, §6, §7, §8
Data set [3] deals with SEBEX. Description: Pre-emergence herbicidal activity, warm season (selectivity test, Table 15). In kind it is in vivo. The following applies: pre-emergence application, read-out: Percent inhibition, weed SEBEX. The method, then:
as §2, §3
(§9) Additional pre-emergence and PPI tests were conducted by the procedures described above, on warm and cool season weed species in the presence of crop species, to assess herbicidal selectivity. Crop species included in warm season tests were corn (Zea mays, ZEAMX), rice (Oryza sativa, ORYSA) and soybean (Glycine max, GLYMX). Crop species included in cool season tests were wheat (Triticum aestivum, TRZAW), barley (Hordeunm vulgare, HORVX) and oilseed rape (Brassica napus, BRSNS).
Tables 15 and 16 relate to pre-emergence and PPI tests respectively on warm season species. Table 17 relates to pre-emergence tests on cool season species.

Data set [4] concerns SEBEX. Nature of the data set: Pre-plant incorporated (PPI) herbicidal activity, warm season. Type of data set: in vivo. The following applies: PPI application, read-out: Percent inhibition SEBEX. The procedure:
as §9

For data set [5], the system named is AEGCY (jointed goatgrass). Description: Pre-emergence herbicidal activity, cool season. In kind it is in vivo, Aegilops cylindrica. The conditions noted are these: GR80 = lowest tested rate (300, 100, 30, 10 g/ha) with 80% or greater inhibition; approx. 14 days after treating; 18/13° C. The method, then:
as §1, §2, §3, §4

For another data set, the system named is SASKR (russian thistle). Nature of the data set: Post-emergence herbicidal activity, cool season. In kind it is in vivo, Salsola kali. The conditions noted are these: abraded plants sprayed; GR80 = lowest tested rate (300, 100, 30, 10 g/ha) with 80% or greater inhibition; approx. 14 days after treatment; 18/13° C. The procedure:
as §5, §6, §7, §8

Structures are written as SMILES.

In turn, `CCN(CC)C(=O)n1cnc(S(=O)(=O)C(F)(F)Br)n1` [Example 1, 3-(bromodifluoromethylsulfonyl)-1-(N,N-diethylcarbamoyl)-1,2,4-triazole] yielded a melting point of 74 to 75 °C. Also, in data set [1], the inhibition at 10 g/ha amounted to 0%, the inhibition at 30 g/ha came out at 0%, the inhibition at 100 g/ha was 0% and the inhibition at 300 g/ha came to 0%. The inhibition at 900 g/ha in data set [1] worked out at 0%. Further, the “Post-emergence activity (GR80) KCHSC” value in the data set with KCHSC (kochia) is listed as 100 g/ha. Moreover, in data set [2], the “Post-emergence activity (GR80) VERPE” value is 300 g/ha. For the same molecule, in the data set with SEBEX [3], the inhibition at 10 g/ha amounted to 0%, the inhibition at 30 g/ha worked out at 0%, the inhibition at 100 g/ha was 0% and the inhibition at 300 g/ha came out at 0%. The inhibition at 900 g/ha in the data set on SEBEX [3] turned out to be 0%. In the data set with SEBEX [4], the inhibition at 10 g/ha was found to be 0%, the inhibition at 30 g/ha stood at 0%, the inhibition at 300 g/ha was determined as 0% and the inhibition at 900 g/ha amounted to 20%. In the data set with SEBEX [4] (100 g/ha), the inhibition at 100 g/ha turned out to be 0%.
As for `CCN(CC)C(=O)n1cnc(S(=O)(=O)C(F)(F)C(F)(F)Br)n1` [Example 4], the “Pre-emergence activity (GR80) AEGCY” value in data set [5] is recorded as “* (activity observed, at least at highest rate, but <80% inhibition)”.
`CCN(CC)C(=O)n1cnc(S(=O)(=O)C(F)F)n1` [Example 15, 1-(N,N-diethylcarbamoyl)-3-(difluoromethylsulfonyl)-1,2,4-triazole] had a melting point of 58 to 59 °C. Further, in data set [1], the inhibition at 10 g/ha came out at 0%, the inhibition at 30 g/ha turned out to be 0%, the inhibition at 100 g/ha amounted to 0% and the inhibition at 300 g/ha is 0%. In addition, the inhibition at 900 g/ha in data set [1] came to 0%. In addition, the “Post-emergence activity (GR80) KCHSC” value with KCHSC (kochia) is on record as 100 g/ha. The “Post-emergence activity (GR80) SASKR” value in the data set with SASKR (russian thistle) turned out to be 100 g/ha. In the data set with SEBEX [3], the inhibition at 10 g/ha came to 0%, the inhibition at 30 g/ha was 0%, the inhibition at 100 g/ha turned out to be 0% and the inhibition at 300 g/ha turned out to be 0%. In addition, the inhibition at 900 g/ha with SEBEX [3] came to 35%. Also, in the data set on SEBEX [4], the inhibition at 10 g/ha came out at 0%, the inhibition at 30 g/ha worked out at 0%, the inhibition at 300 g/ha was determined as 0% and the inhibition at 900 g/ha came out at 50%.
